Data: article PMC5218480 (PLoS ONE, 2017)

Tested on: MV-4-11 cells
Experiment: Gene expression microarray analysis (Affymetrix PrimeView) and GSEA
Format: cell-based, human
Design: RFU PODN (11730768_x_at) / Fold change /veh PODN (11730768_x_at) / RFU LINC00158 (11744669_a_at) / Fold change /veh LINC00158 (11744669_a_at) / RFU DUSP10 (11751237_a_at) / Fold change /veh DUSP10 (11751237_a_at) / RFU ID3 (11757404_x_at) / Fold change /veh ID3 (11757404_x_at) / RFU PLEKHG5 (11737974_s_at) / Fold change /veh PLEKHG5 (11737974_s_at) / RFU LRRC4B (11730491_at) / Fold change /veh LRRC4B (11730491_at) / RFU GIMAP4 (11747438_a_at) / Fold change /veh GIMAP4 (11747438_a_at) / RFU KRT8 (11758183_x_at) / Fold change /veh KRT8 (11758183_x_at) / RFU CNN1 (11734310_a_at) / Fold change /veh CNN1 (11734310_a_at) / RFU VPS37D (11726825_at) / Fold change /veh VPS37D (11726825_at) / RFU C10orf10 (11716522_x_at) / Fold change /veh C10orf10 (11716522_x_at) / RFU KIR2DL2 /// KIR2DL4 /// KIR2DL5A /// KIR2DL5B /// KIR2DS1 /// KIR2DS2 /// KIR2DS3 /// KIR2DS4 /// KIR3DL3 /// KIR3DL3 /// KIR3DS1 (11738374_at) / Fold change /veh KIR2DL2 /// KIR2DL4 /// KIR2DL5A /// KIR2DL5B /// KIR2DS1 /// KIR2DS2 /// KIR2DS3 /// KIR2DS4 /// KIR3DL3 /// KIR3DL3 /// KIR3DS1 (11738374_at) / RFU C1QL1 (11718748_at) / Fold change /veh C1QL1 (11718748_at) / RFU TMPRSS4 (11747572_a_at) / Fold change /veh TMPRSS4 (11747572_a_at) / RFU HAMP (11756126_x_at) / Fold change /veh HAMP (11756126_x_at) / RFU RNFT2 (11725882_a_at) / Fold change /veh RNFT2 (11725882_a_at) / RFU NR4A2 (11747474_a_at) / Fold change /veh NR4A2 (11747474_a_at) / RFU ABCC12 (11746883_a_at) / Fold change /veh ABCC12 (11746883_a_at) / RFU TMEM136 (11760407_x_at) / Fold change /veh TMEM136 (11760407_x_at) / RFU CLDN22 /// WWC2 (11732394_at) / Fold change /veh CLDN22 /// WWC2 (11732394_at) / RFU HLA-DPB1 (11760878_x_at) / Fold change /veh HLA-DPB1 (11760878_x_at) / RFU SPINT1 (11716480_a_at) / Fold change /veh SPINT1 (11716480_a_at) / RFU GAP43 (11754022_s_at) / Fold change /veh GAP43 (11754022_s_at) / RFU A4GNT (11735810_at) / Fold change /veh A4GNT (11735810_at) / RFU PRB3 (11715151_x_at) / Fold change /veh PRB3 (11715151_x_at) / RFU TUBB4B (11761932_at) / Fold change /veh TUBB4B (11761932_at) / RFU CAPN14 (11732068_a_at) / Fold change /veh CAPN14 (11732068_a_at) / RFU TMCC2 (11721928_a_at) / Fold change /veh TMCC2 (11721928_a_at) / RFU IRGQ (11745062_a_at) / Fold change /veh IRGQ (11745062_a_at) / RFU FAM174B (11720279_a_at) / Fold change /veh FAM174B (11720279_a_at) / RFU TMPRSS4 (11748680_a_at) / Fold change /veh TMPRSS4 (11748680_a_at) / RFU FAM212B (11763350_a_at) / Fold change /veh FAM212B (11763350_a_at) / RFU PLEKHG5 (11743358_a_at) / Fold change /veh PLEKHG5 (11743358_a_at) / RFU ZSCAN30 (11745921_a_at) / Fold change /veh ZSCAN30 (11745921_a_at) / RFU CMKLR1 (11741424_a_at) / Fold change /veh CMKLR1 (11741424_a_at) / RFU LOC101060620 /// MAPK8IP1 (11723275_at) / Fold change /veh LOC101060620 /// MAPK8IP1 (11723275_at) / RFU SPTSSB (11747773_x_at) / Fold change /veh SPTSSB (11747773_x_at) / RFU PRSS12 (11739890_at) / Fold change /veh PRSS12 (11739890_at) / RFU BIN1 (11741810_x_at) / Fold change /veh BIN1 (11741810_x_at) / RFU WNT11 (11732464_a_at) / Fold change /veh WNT11 (11732464_a_at) / RFU C10orf10 (11716521_a_at) / Fold change /veh C10orf10 (11716521_a_at) / RFU C5orf56 (11738089_at) / Fold change /veh C5orf56 (11738089_at) / RFU CYB561 (11721691_x_at) / Fold change /veh CYB561 (11721691_x_at) / RFU ANKRD19P (11752326_a_at) / Fold change /veh ANKRD19P (11752326_a_at) / RFU OR2T12 /// OR2T33 /// OR2T8 (11738714_s_at) / Fold change /veh OR2T12 /// OR2T33 /// OR2T8 (11738714_s_at) / RFU VCAN (11748164_a_at) / Fold change /veh VCAN (11748164_a_at) / RFU JSRP1 (11732532_at) / Fold change /veh JSRP1 (11732532_at) / RFU KRTAP10-11 (11738290_x_at) / Fold change /veh KRTAP10-11 (11738290_x_at) / RFU MYO3A (11730013_a_at) / Fold change /veh MYO3A (11730013_a_at) / RFU EBF3 (11725865_a_at) / Fold change /veh EBF3 (11725865_a_at) / RFU CAMK2N1 (11719241_x_at) / Fold change /veh CAMK2N1 (11719241_x_at) / RFU C5orf56 (11738088_a_at) / Fold change /veh C5orf56 (11738088_a_at) / RFU OLFML3 (11715873_a_at) / Fold change /veh OLFML3 (11715873_a_at) / RFU LOC100653217 /// NTM (11731650_a_at) / Fold change /veh LOC100653217 /// NTM (11731650_a_at) / RFU MAPK11 (11762145_a_at) / Fold change /veh MAPK11 (11762145_a_at) / RFU FIZ1 (11724087_x_at) / Fold change /veh FIZ1 (11724087_x_at) / RFU OASL (11726364_x_at) / Fold change /veh OASL (11726364_x_at) / RFU SOX15 (11748057_x_at) / Fold change /veh SOX15 (11748057_x_at) / RFU CD79A (11719716_a_at) / Fold change /veh CD79A (11719716_a_at) / RFU HIST1H1D (11736915_at) / Fold change /veh HIST1H1D (11736915_at) / RFU CASKIN2 (11723855_a_at) / Fold change /veh CASKIN2 (11723855_a_at) / RFU LOC730098 (11760151_x_at) / Fold change /veh LOC730098 (11760151_x_at) / RFU OR4N2 (11742367_at) / Fold change /veh OR4N2 (11742367_at) / RFU PRRT2 (11749266_a_at) / Fold change /veh PRRT2 (11749266_a_at) / RFU SNX32 (11753110_a_at) / Fold change /veh SNX32 (11753110_a_at) / RFU CDHR5 (11726645_a_at) / Fold change /veh CDHR5 (11726645_a_at) / RFU RCAN1 (11760418_a_at) / Fold change /veh RCAN1 (11760418_a_at) / RFU FAM167A (11723789_a_at) / Fold change /veh FAM167A (11723789_a_at) / RFU FAM26E (11764081_at) / Fold change /veh FAM26E (11764081_at) / RFU ISYNA1 (11749810_s_at) / Fold change /veh ISYNA1 (11749810_s_at) / RFU ACY1 (11761880_at) / Fold change /veh ACY1 (11761880_at) / RFU 11764098_at / Fold change /veh 11764098_at / RFU SAMD14 (11745864_x_at) / Fold change /veh SAMD14 (11745864_x_at) / RFU NPB (11741838_a_at) / Fold change /veh NPB (11741838_a_at) / RFU TMPRSS6 (11731388_a_at) / Fold change /veh TMPRSS6 (11731388_a_at) / RFU KRTAP10-2 (11738614_at) / Fold change /veh KRTAP10-2 (11738614_at) / RFU ARHGAP8 /// PRR5-ARHGAP8 (11727945_x_at) / Fold change /veh ARHGAP8 /// PRR5-ARHGAP8 (11727945_x_at) / RFU KRTAP5-7 /// NADSYN1 (11734609_at) / Fold change /veh KRTAP5-7 /// NADSYN1 (11734609_at) / RFU RASL12 (11751679_a_at) / Fold change /veh RASL12 (11751679_a_at) / RFU CDKN2B (11736163_a_at) / Fold change /veh CDKN2B (11736163_a_at) / RFU PRF1 (11729649_at) / Fold change /veh PRF1 (11729649_at) / RFU, ZNF638 /// ZNF638-IT1 / Fold change vs veh, ZNF638 /// ZNF638-IT1 / RFU, PANK3 / Fold change vs veh, PANK3 / RFU, SH3YL1 / Fold change vs veh, SH3YL1 / RFU, ZEB2 / Fold change vs veh, ZEB2 / RFU, NRIP1 / Fold change vs veh, NRIP1 / RFU, PTTG1IP / Fold change vs veh, PTTG1IP / RFU, CAPN2 / Fold change vs veh, CAPN2 / RFU, MED14 / Fold change vs veh, MED14 / RFU, SNORA58 / Fold change vs veh, SNORA58 / RFU, C1orf63 / Fold change vs veh, C1orf63 / RFU, LRRFIP1 / Fold change vs veh, LRRFIP1 / RFU, NDUFAF7 / Fold change vs veh, NDUFAF7 / RFU, SLC12A2 / Fold change vs veh, SLC12A2 / RFU, IBTK / Fold change vs veh, IBTK / RFU, ESF1 / Fold change vs veh, ESF1 / Fold change vs veh, TMEM50B / RFU, TAOK1 / Fold change vs veh, TAOK1 / RFU, ACBD3 / Fold change vs veh, ACBD3 / RFU, TMA16 / Fold change vs veh, TMA16 / RFU, RWDD3 / Fold change vs veh, RWDD3 / RFU, BCAT1 / Fold change vs veh, BCAT1 / RFU, EDEM3 / Fold change vs veh, EDEM3 / RFU, TMEM33 / Fold change vs veh, TMEM33 / RFU, WDR75 / Fold change vs veh, WDR75 / RFU, AHCTF1 / Fold change vs veh, AHCTF1 / RFU, TFRC / Fold change vs veh, TFRC / RFU, ZDHHC17 / Fold change vs veh, ZDHHC17 / RFU, NOM1 / Fold change vs veh, NOM1 / RFU, ARL8B / Fold change vs veh, ARL8B / RFU, ZBTB11 / Fold change vs veh, ZBTB11 / RFU, TAMM41 / Fold change vs veh, TAMM41 / RFU, KIAA1704 /// LOC100996395 / Fold change vs veh, KIAA1704 /// LOC100996395 / RFU, ING1 / Fold change vs veh, ING1 / RFU, TRMT61B / Fold change vs veh, TRMT61B / RFU, FUBP3 / Fold change vs veh, FUBP3 / RFU, TP53 / Fold change vs veh, TP53 / RFU, TNKS2 / Fold change vs veh, TNKS2 / RFU, ZFP14 / Fold change vs veh, ZFP14 / RFU, ACTR2 / Fold change vs veh, ACTR2 / RFU, PPP3R1 / Fold change vs veh, PPP3R1 / RFU, PIK3R1 / Fold change vs veh, PIK3R1 / RFU, HNRNPA1 / Fold change vs veh, HNRNPA1 / RFU, RNF170 / Fold change vs veh, RNF170 / RFU, ZNF28 / Fold change vs veh, ZNF28 / RFU, RNGTT / Fold change vs veh, RNGTT / RFU, OGT / Fold change vs veh, OGT / RFU, BRD1 / Fold change vs veh, BRD1 / RFU, MARS / Fold change vs veh, MARS / RFU, ZNF655 / Fold change vs veh, ZNF655 / RFU, FAHD1 / Fold change vs veh, FAHD1 / RFU, BDP1 / Fold change vs veh, BDP1 / RFU, LRRCC1 / Fold change vs veh, LRRCC1 / RFU, ARID1A / Fold change vs veh, ARID1A / RFU, ZNF146 / Fold change vs veh, ZNF146 / RFU, ZNF330 / Fold change vs veh, ZNF330 / RFU, GPN3 / Fold change vs veh, GPN3 / RFU, C9orf123 / Fold change vs veh, C9orf123 / RFU, N4BP2L2 / Fold change vs veh, N4BP2L2 / RFU, ARFIP1 / Fold change vs veh, ARFIP1 / RFU, FAM179B / Fold change vs veh, FAM179B / RFU, BCL10 / Fold change vs veh, BCL10 / RFU, UHRF1BP1L / Fold change vs veh, UHRF1BP1L / RFU, BET1 / Fold change vs veh, BET1 / RFU, CNOT2 / Fold change vs veh, CNOT2 / RFU, ZNF268 / Fold change vs veh, ZNF268 / Fold change vs veh, ZNF507 / RFU, DGCR2 / Fold change vs veh, DGCR2 / RFU, WDSUB1 / Fold change vs veh, WDSUB1 / Fold change vs veh, HSP90B1 /// MIR3652 / RFU, ADSS / Fold change vs veh, ADSS / RFU, GK / Fold change vs veh, GK / RFU, ZNF148 / Fold change vs veh, ZNF148 / RFU, TAF9 / Fold change vs veh, TAF9 / RFU, SLC1A5 / Fold change vs veh, SLC1A5 / RFU, SLMO2 / Fold change vs veh, SLMO2 / RFU, ABCC4 / Fold change vs veh, ABCC4 / RFU, LOC101060439 /// RAP1B / Fold change vs veh, LOC101060439 /// RAP1B / RFU, RFX7 / Fold change vs veh, RFX7 / RFU, GTPBP10 / Fold change vs veh, GTPBP10 / RFU, CNEP1R1 / Fold change vs veh, CNEP1R1 / RFU, BIVM-ERCC5 /// ERCC5 / Fold change vs veh, BIVM-ERCC5 /// ERCC5 / RFU, ILF3 / Fold change vs veh, ILF3 / RFU 11762660_at / Fold change /veh 11762660_at / RFU VCAN (11757783_s_at) / Fold change /veh VCAN (11757783_s_at) / RFU DDX43 (11728927_at) / Fold change /veh DDX43 (11728927_at) / RFU KRT8 (11758188_x_at) / Fold change /veh KRT8 (11758188_x_at) / RFU NKD1 (11759106_at) / Fold change /veh NKD1 (11759106_at) / RFU SRD5A1 (11742802_a_at) / Fold change /veh SRD5A1 (11742802_a_at) / RFU TPSAB1 /// TPSB2 (11721975_s_at) / Fold change /veh TPSAB1 /// TPSB2 (11721975_s_at) / RFU GSTM3 (11746129_a_at) / Fold change /veh GSTM3 (11746129_a_at) / RFU IL23R (11737362_x_at) / Fold change /veh IL23R (11737362_x_at) / RFU TMEM51 (11727254_a_at) / Fold change /veh TMEM51 (11727254_a_at) / RFU PIWIL2 (11732686_x_at) / Fold change /veh PIWIL2 (11732686_x_at) / RFU ORM1 (11744905_x_at) / Fold change /veh ORM1 (11744905_x_at) / RFU CCDC152 (11743942_at) / Fold change /veh CCDC152 (11743942_at) / RFU ECM1 (11717891_a_at) / Fold change /veh ECM1 (11717891_a_at) / RFU IL23R (11748794_a_at) / Fold change /veh IL23R (11748794_a_at) / RFU TNFAIP8L3 (11732012_x_at) / Fold change /veh TNFAIP8L3 (11732012_x_at) / RFU MBOAT4 (11741988_at) / Fold change /veh MBOAT4 (11741988_at) / RFU 11764193_at / Fold change /veh 11764193_at / RFU TMEM53 (11763286_at) / Fold change /veh TMEM53 (11763286_at) / RFU MAGEB2 (11727129_at) / Fold change /veh MAGEB2 (11727129_at) / RFU TMEM200A (11744735_a_at) / Fold change /veh TMEM200A (11744735_a_at) / RFU CCDC152 (11751479_a_at) / Fold change /veh CCDC152 (11751479_a_at) / RFU FAM211A (11726209_a_at) / Fold change /veh FAM211A (11726209_a_at) / RFU RGS16 (11746705_a_at) / Fold change /veh RGS16 (11746705_a_at) / RFU VCAN (11755009_s_at) / Fold change /veh VCAN (11755009_s_at) / RFU RHOB (11743442_s_at) / Fold change /veh RHOB (11743442_s_at) / RFU RGS16 (11720943_a_at) / Fold change /veh RGS16 (11720943_a_at) / RFU RGS16 (11720944_at) / Fold change /veh RGS16 (11720944_at) / RFU, VPS4B / Fold change vs veh, VPS4B / RFU, CREB1 / Fold change vs veh, CREB1 / RFU, DNAJC13 / Fold change vs veh, DNAJC13 / RFU, GNAQ / Fold change vs veh, GNAQ / RFU, CDK5R1 / Fold change vs veh, CDK5R1 / RFU, ZRANB3 / Fold change vs veh, ZRANB3 / RFU, CUL4A / Fold change vs veh, CUL4A / RFU, CCNY / Fold change vs veh, CCNY / RFU, UFL1 / Fold change vs veh, UFL1 / RFU, COG3 / Fold change vs veh, COG3 / RFU, DIAPH2 / Fold change vs veh, DIAPH2 / RFU, SKA2 / Fold change vs veh, SKA2 / RFU, AFF3 / Fold change vs veh, AFF3 / RFU, LMF1 / Fold change vs veh, LMF1 / RFU, IPO11 / Fold change vs veh, IPO11 / RFU, DFFB / Fold change vs veh, DFFB / RFU, FOXP1 / Fold change vs veh, FOXP1 / RFU, CARD8 / Fold change vs veh, CARD8 / RFU, STRN3 / Fold change vs veh, STRN3 / RFU, ADK / Fold change vs veh, ADK / RFU, RASSF2 / Fold change vs veh, RASSF2 / RFU, WIPF1 / Fold change vs veh, WIPF1 / RFU, LARP1B / Fold change vs veh, LARP1B / RFU, RASA1 / Fold change vs veh, RASA1 / RFU, RB1 / Fold change vs veh, RB1 / RFU, PPFIA1 / Fold change vs veh, PPFIA1 / RFU, MAT2A / Fold change vs veh, MAT2A / RFU, CCT5 / Fold change vs veh, CCT5 / RFU, WDR92 / Fold change vs veh, WDR92 / RFU, CUX1 / Fold change vs veh, CUX1 / RFU, TTC7A / Fold change vs veh, TTC7A / RFU, TMEM135 / Fold change vs veh, TMEM135 / RFU, DEPTOR / Fold change vs veh, DEPTOR / RFU, CPM / Fold change vs veh, CPM / RFU, DNAJB6 / Fold change vs veh, DNAJB6 / RFU, CACNA2D3 / Fold change vs veh, CACNA2D3 / RFU, DTX4 / Fold change vs veh, DTX4 / RFU, TFCP2 / Fold change vs veh, TFCP2 / RFU, GMCL1 /// GMCL1P1 / Fold change vs veh, GMCL1 /// GMCL1P1 / RFU, AEBP2 / Fold change vs veh, AEBP2 / RFU, SNHG1 /// SNORD22 /// SNORD25 /// SNORD26 /// SNORD27 /// SNORD28 /// SNORD29 /// SNORD31 / Fold change vs veh, SNHG1 /// SNORD22 /// SNORD25 /// SNORD26 /// SNORD27 /// SNORD28 /// SNORD29 /// SNORD31 / Fold change (Aza/veh), C12orf56 (ProbeSet 11735607_a_at) / Fold change (ACY-1035/veh), C12orf56 (ProbeSet 11735607_a_at) / Fold change (Aza/veh), FGFR1OP (ProbeSet 11751329_s_at) / Fold change (ACY-1035/veh), FGFR1OP (ProbeSet 11751329_s_at) / Fold change (Aza/veh), VPS36 (ProbeSet 11739960_a_at) / Fold change (ACY-1035/veh), VPS36 (ProbeSet 11739960_a_at) / RFU SYPL1 (11715823_x_at) / Fold change /veh SYPL1 (11715823_x_at) / RFU IGFBP7 (11715501_s_at) / Fold change /veh IGFBP7 (11715501_s_at) / RFU REEP3 (11722064_at) / Fold change /veh REEP3 (11722064_at) / RFU IGLL1 (11728026_x_at) / Fold change /veh IGLL1 (11728026_x_at): dose or concentration left out as unconfirmed
Settings: ProbeSet 11716891_at; LIST B

SMILES: Nc1ncn([C@@H]2O[C@H](CO)[C@@H](O)[C@H]2O)c(=O)n1 [azacitidine]
- Fold change vs veh, C9orf123: 1.12
